According to PubChem BioAssay (NCI):
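Results reflect a 48-hour exposure of cells in 96-well plates to compound at five concentrations. The concentration for full growth arrest is given as TGI.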

Experiments:
Test in all cases: inhibition of tumour cell growth, NCI panel, 48 h
786-0 renal = tested on: 786-0 renal
A498 renal = tested on: A498 renal
A549 NSCLC = tested on: A549 NSCLC
ACHN renal = tested on: ACHN renal
CAKI-1 renal = tested on: CAKI-1 renal
COLO 205 colon = tested on: COLO 205 colon
DU-145 prostate = tested on: DU-145 prostate
EKVX NSCLC = tested on: EKVX NSCLC
HCC-2998 colon = tested on: HCC-2998 colon
HCT-116 colon = tested on: HCT-116 colon
HCT-15 colon = tested on: HCT-15 colon
HL-60(TB) leukemia = tested on: HL-60(TB) leukemia
HOP-62 NSCLC = tested on: HOP-62 NSCLC
HOP-92 NSCLC = tested on: HOP-92 NSCLC
HS 578T breast = tested on: HS 578T breast
HT29 colon = tested on: HT29 colon
IGROV1 ovarian = tested on: IGROV1 ovarian
K-562 leukemia = tested on: K-562 leukemia
KM12 colon = tested on: KM12 colon
M14 melanoma = tested on: M14 melanoma
MALME-3M melanoma = tested on: MALME-3M melanoma
MCF7 breast = tested on: MCF7 breast
MDA-N = tested on: MDA-N
MOLT-4 leukemia = tested on: MOLT-4 leukemia
NCI-H23 lung = tested on: NCI-H23 lung
NCI-H460 lung = tested on: NCI-H460 lung
NCI/ADR-RES ovarian = tested on: NCI/ADR-RES ovarian
OVCAR-4 ovarian = tested on: OVCAR-4 ovarian
OVCAR-5 ovarian = tested on: OVCAR-5 ovarian
OVCAR-8 ovarian = tested on: OVCAR-8 ovarian
PC-3 prostate = tested on: PC-3 prostate
RPMI-8226 leukemia = tested on: RPMI-8226 leukemia
RXF 393 renal = tested on: RXF 393 renal
SF-268 CNS = tested on: SF-268 CNS
SF-295 CNS = tested on: SF-295 CNS
SK-MEL-28 melanoma = tested on: SK-MEL-28 melanoma
SK-MEL-5 melanoma = tested on: SK-MEL-5 melanoma
SK-OV-3 ovarian = tested on: SK-OV-3 ovarian
SNB-19 CNS = tested on: SNB-19 CNS
SNB-75 CNS = tested on: SNB-75 CNS
SR leukemia = tested on: SR leukemia
SW-620 colon = tested on: SW-620 colon
T-47D breast = tested on: T-47D breast
TK-10 renal = tested on: TK-10 renal
U251 CNS = tested on: U251 CNS
UACC-257 melanoma = tested on: UACC-257 melanoma
UO-31 renal = tested on: UO-31 renal
BT-549 breast = tested on: BT-549 breast
CCRF-CEM leukemia = tested on: CCRF-CEM leukemia
LOX IMVI melanoma = tested on: LOX IMVI melanoma
MDA-MB-231 breast = tested on: MDA-MB-231 breast
MDA-MB-435 = tested on: MDA-MB-435
NCI-H226 lung = tested on: NCI-H226 lung
NCI-H522 lung = tested on: NCI-H522 lung
OVCAR-3 ovarian = tested on: OVCAR-3 ovarian
SF-539 CNS = tested on: SF-539 CNS
SK-MEL-2 melanoma = tested on: SK-MEL-2 melanoma
SN12C renal = tested on: SN12C renal
UACC-62 melanoma = tested on: UACC-62 melanoma

CCOC(=O)c1c(-c2ccccc2)[nH]c2ccccc2c1=O
TGI (786-0 renal): > 100 µM | TGI (A498 renal): > 100 µM | TGI (A549 NSCLC): > 100 µM | TGI (ACHN renal): > 100 µM | TGI (CAKI-1 renal): > 100 µM | TGI (COLO 205 colon): > 100 µM | TGI (DU-145 prostate): > 100 µM | TGI (EKVX NSCLC): > 100 µM | TGI (HCC-2998 colon): > 100 µM | TGI (HCT-116 colon): > 100 µM | TGI (HCT-15 colon): > 100 µM | TGI (HL-60(TB) leukemia): > 100 µM | TGI (HOP-62 NSCLC): > 100 µM | TGI (HOP-92 NSCLC): > 100 µM | TGI (HS 578T breast): > 100 µM | TGI (HT29 colon): > 100 µM | TGI (IGROV1 ovarian): > 100 µM | TGI (K-562 leukemia): > 100 µM | TGI (KM12 colon): > 100 µM | TGI (M14 melanoma): > 100 µM | TGI (MALME-3M melanoma): > 100 µM | TGI (MCF7 breast): > 100 µM | TGI (MDA-N): > 100 µM | TGI (MOLT-4 leukemia): > 100 µM | TGI (NCI-H23 lung): > 100 µM | TGI (NCI-H460 lung): > 100 µM | TGI (NCI/ADR-RES ovarian): > 100 µM | TGI (OVCAR-4 ovarian): > 100 µM | TGI (OVCAR-5 ovarian): > 100 µM | TGI (OVCAR-8 ovarian): > 100 µM | TGI (PC-3 prostate): > 100 µM | TGI (RPMI-8226 leukemia): > 100 µM | TGI (RXF 393 renal): > 100 µM | TGI (SF-268 CNS): > 100 µM | TGI (SF-295 CNS): > 100 µM | TGI (SK-MEL-28 melanoma): > 100 µM | TGI (SK-MEL-5 melanoma): > 100 µM | TGI (SK-OV-3 ovarian): > 100 µM | TGI (SNB-19 CNS): > 100 µM | TGI (SNB-75 CNS): > 100 µM | TGI (SR leukemia): > 100 µM | TGI (SW-620 colon): > 100 µM | TGI (T-47D breast): > 100 µM | TGI (TK-10 renal): > 100 µM | TGI (U251 CNS): > 100 µM | TGI (UACC-257 melanoma): > 100 µM | TGI (UO-31 renal): > 100 µM

COc1ccc2c(c1)OCC1Cc3cccc(OC)c3OC21 (stereo not given)
TGI (786-0 renal): > 100 µM | TGI (A498 renal): > 100 µM | TGI (A549 NSCLC): > 100 µM | TGI (BT-549 breast): 80 µM | TGI (CAKI-1 renal): > 100 µM | TGI (CCRF-CEM leukemia): > 100 µM | TGI (COLO 205 colon): > 100 µM | TGI (DU-145 prostate): > 100 µM | TGI (EKVX NSCLC): > 100 µM | TGI (HCC-2998 colon): > 100 µM | TGI (HCT-116 colon): > 100 µM | TGI (HCT-15 colon): > 100 µM | TGI (HOP-62 NSCLC): > 100 µM | TGI (HOP-92 NSCLC): > 100 µM | TGI (HT29 colon): > 100 µM | TGI (IGROV1 ovarian): > 100 µM | TGI (KM12 colon): > 100 µM | TGI (LOX IMVI melanoma): > 100 µM | TGI (M14 melanoma): > 100 µM | TGI (MALME-3M melanoma): > 100 µM | TGI (MDA-MB-231 breast): > 100 µM | TGI (MDA-MB-435): > 100 µM | TGI (MDA-N): > 100 µM | TGI (MOLT-4 leukemia): 80.7 µM | TGI (NCI-H226 lung): > 100 µM | TGI (NCI-H23 lung): > 100 µM | TGI (NCI-H522 lung): > 100 µM | TGI (NCI/ADR-RES ovarian): > 100 µM | TGI (OVCAR-3 ovarian): > 100 µM | TGI (OVCAR-5 ovarian): > 100 µM | TGI (OVCAR-8 ovarian): > 100 µM | TGI (PC-3 prostate): > 100 µM | TGI (RPMI-8226 leukemia): > 100 µM | TGI (SF-268 CNS): > 100 µM | TGI (SF-295 CNS): > 100 µM | TGI (SF-539 CNS): > 100 µM | TGI (SK-MEL-2 melanoma): > 100 µM | TGI (SK-MEL-5 melanoma): 35.7 µM | TGI (SK-OV-3 ovarian): > 100 µM | TGI (SN12C renal): > 100 µM | TGI (SR leukemia): > 100 µM | TGI (SW-620 colon): > 100 µM | TGI (T-47D breast): > 100 µM | TGI (TK-10 renal): > 100 µM | TGI (U251 CNS): > 100 µM | TGI (UACC-257 melanoma): > 100 µM | TGI (UACC-62 melanoma): > 100 µM | TGI (UO-31 renal): > 100 µM
